Experimental data as given in patent US11208412B2 (DAEGU-GYEONGBUK MEDICAL INNOVATION FOUNDATION, priority 2017, dated 2021).

How the values were obtained:
Assay in all cases: Kinase selectivity, DiscoverX scanMAX Kinase assay panel (% control)
Format in all cases: binding
[1] = molecular target: T1, kinases of the scanMAX Kinase assay panel (Homo sapiens, UniProt Q8NE63); conditions: HIPK4; 1 uM
T1 construct: purchased DiscoverX Co. (contract measurement) scanMAX Kinase assay panel
T1 sequence (Q8NE63 1-616): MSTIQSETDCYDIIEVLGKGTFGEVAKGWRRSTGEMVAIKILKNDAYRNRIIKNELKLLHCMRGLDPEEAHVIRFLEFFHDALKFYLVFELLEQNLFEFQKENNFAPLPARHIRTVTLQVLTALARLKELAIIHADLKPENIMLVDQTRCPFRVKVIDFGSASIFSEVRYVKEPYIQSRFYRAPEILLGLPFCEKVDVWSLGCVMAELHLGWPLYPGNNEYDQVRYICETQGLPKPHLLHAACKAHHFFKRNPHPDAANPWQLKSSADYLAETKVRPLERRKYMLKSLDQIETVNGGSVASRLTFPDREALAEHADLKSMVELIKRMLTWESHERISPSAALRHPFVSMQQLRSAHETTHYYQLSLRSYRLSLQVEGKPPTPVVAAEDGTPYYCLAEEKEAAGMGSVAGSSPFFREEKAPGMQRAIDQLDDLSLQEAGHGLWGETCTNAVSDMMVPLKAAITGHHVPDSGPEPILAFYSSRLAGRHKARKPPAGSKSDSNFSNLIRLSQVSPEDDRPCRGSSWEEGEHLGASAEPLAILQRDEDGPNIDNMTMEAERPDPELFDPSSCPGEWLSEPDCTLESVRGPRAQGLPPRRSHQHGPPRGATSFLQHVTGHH
In short: (§1)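 Single-point screen, 1 uM cpd in DMSO. % ctrl = (cpd − pos ctrl)/(neg ctrl − pos ctrl)×100; pos ctrl = 0%, DMSO neg ctrl = 100%. Hit cutoff <35%.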

[2] = molecular target: T2, kinases of the scanMAX Kinase assay panel (Homo sapiens, UniProt Q04759); conditions: PRKCQ; 1 uM
T2 construct: purchased DiscoverX Co. (contract measurement) scanMAX Kinase assay panel
In short: as §1

[3] = molecular target: T3, kinases of the scanMAX Kinase assay panel (Homo sapiens, UniProt Q14680); conditions: MELK; 1 uM
T3 construct: purchased DiscoverX Co. (contract measurement) scanMAX Kinase assay panel
In short: as §1

[4] = molecular target: T4, kinases of the scanMAX Kinase assay panel (Homo sapiens, UniProt P31751); conditions: AKT2; 1 uM
T4 construct: purchased DiscoverX Co. (contract measurement) scanMAX Kinase assay panel
In short: as §1

[5] = molecular target: T5, kinases of the scanMAX Kinase assay panel (Homo sapiens, UniProt Q9UBE8); conditions: NLK; 1 uM
T5 construct: purchased DiscoverX Co. (contract measurement) scanMAX Kinase assay panel
T5 sequence (Q9UBE8 1-527): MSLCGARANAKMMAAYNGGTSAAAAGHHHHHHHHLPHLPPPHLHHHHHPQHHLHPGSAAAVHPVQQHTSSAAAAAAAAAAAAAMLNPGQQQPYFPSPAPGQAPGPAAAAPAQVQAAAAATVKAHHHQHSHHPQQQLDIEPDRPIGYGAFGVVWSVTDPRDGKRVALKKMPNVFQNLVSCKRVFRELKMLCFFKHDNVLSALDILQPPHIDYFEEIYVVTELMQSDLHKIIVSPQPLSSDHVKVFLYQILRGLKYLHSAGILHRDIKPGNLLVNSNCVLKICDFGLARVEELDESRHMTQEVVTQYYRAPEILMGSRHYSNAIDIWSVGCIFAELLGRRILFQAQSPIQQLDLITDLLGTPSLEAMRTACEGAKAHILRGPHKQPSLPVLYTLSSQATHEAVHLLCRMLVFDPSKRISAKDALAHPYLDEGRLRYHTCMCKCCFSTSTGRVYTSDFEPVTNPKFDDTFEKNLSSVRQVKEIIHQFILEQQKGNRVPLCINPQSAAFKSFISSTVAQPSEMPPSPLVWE
In short: as §1

[6] = molecular target: T6, kinases of the scanMAX Kinase assay panel (Homo sapiens, UniProt P36888); conditions: 1 uM
T6 construct: purchased DiscoverX Co. (contract measurement) scanMAX Kinase assay panel
T6 sequence (P36888 27-993): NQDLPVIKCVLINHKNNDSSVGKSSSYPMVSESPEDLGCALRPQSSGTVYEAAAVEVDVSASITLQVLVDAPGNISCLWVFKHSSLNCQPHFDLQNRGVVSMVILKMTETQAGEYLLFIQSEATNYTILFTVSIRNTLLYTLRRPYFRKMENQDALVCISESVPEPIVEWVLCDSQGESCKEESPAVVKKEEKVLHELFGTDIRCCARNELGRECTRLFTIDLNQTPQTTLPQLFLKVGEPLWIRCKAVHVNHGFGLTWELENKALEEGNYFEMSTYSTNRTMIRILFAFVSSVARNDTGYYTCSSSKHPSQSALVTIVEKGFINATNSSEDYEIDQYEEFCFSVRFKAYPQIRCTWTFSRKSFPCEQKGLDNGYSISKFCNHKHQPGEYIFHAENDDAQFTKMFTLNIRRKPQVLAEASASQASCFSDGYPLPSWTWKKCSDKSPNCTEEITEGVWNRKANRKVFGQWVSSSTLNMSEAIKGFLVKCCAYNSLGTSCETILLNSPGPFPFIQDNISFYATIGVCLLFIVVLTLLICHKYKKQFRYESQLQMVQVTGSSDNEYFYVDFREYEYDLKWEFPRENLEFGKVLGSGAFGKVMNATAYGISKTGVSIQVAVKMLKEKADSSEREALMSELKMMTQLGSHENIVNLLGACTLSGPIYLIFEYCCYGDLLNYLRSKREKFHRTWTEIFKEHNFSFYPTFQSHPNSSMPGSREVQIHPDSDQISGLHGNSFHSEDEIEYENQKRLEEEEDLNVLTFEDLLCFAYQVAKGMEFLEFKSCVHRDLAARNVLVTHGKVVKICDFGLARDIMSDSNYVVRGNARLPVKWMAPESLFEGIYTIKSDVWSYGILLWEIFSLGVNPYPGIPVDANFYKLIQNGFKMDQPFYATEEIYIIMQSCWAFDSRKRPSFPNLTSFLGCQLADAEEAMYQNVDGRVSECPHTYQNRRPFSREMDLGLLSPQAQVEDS
In short: as §1

[7] = molecular target: T7, kinases of the scanMAX Kinase assay panel (Homo sapiens, UniProt P04626); conditions: ERBB2; 1 uM
T7 construct: purchased DiscoverX Co. (contract measurement) scanMAX Kinase assay panel
In short: as §1

[8] = molecular target: T8, kinases of the scanMAX Kinase assay panel (Homo sapiens, UniProt Q16659); conditions: ERK3; 1 uM
T8 construct: purchased DiscoverX Co. (contract measurement) scanMAX Kinase assay panel
In short: as §1

T7 sequence (P04626 23-1255): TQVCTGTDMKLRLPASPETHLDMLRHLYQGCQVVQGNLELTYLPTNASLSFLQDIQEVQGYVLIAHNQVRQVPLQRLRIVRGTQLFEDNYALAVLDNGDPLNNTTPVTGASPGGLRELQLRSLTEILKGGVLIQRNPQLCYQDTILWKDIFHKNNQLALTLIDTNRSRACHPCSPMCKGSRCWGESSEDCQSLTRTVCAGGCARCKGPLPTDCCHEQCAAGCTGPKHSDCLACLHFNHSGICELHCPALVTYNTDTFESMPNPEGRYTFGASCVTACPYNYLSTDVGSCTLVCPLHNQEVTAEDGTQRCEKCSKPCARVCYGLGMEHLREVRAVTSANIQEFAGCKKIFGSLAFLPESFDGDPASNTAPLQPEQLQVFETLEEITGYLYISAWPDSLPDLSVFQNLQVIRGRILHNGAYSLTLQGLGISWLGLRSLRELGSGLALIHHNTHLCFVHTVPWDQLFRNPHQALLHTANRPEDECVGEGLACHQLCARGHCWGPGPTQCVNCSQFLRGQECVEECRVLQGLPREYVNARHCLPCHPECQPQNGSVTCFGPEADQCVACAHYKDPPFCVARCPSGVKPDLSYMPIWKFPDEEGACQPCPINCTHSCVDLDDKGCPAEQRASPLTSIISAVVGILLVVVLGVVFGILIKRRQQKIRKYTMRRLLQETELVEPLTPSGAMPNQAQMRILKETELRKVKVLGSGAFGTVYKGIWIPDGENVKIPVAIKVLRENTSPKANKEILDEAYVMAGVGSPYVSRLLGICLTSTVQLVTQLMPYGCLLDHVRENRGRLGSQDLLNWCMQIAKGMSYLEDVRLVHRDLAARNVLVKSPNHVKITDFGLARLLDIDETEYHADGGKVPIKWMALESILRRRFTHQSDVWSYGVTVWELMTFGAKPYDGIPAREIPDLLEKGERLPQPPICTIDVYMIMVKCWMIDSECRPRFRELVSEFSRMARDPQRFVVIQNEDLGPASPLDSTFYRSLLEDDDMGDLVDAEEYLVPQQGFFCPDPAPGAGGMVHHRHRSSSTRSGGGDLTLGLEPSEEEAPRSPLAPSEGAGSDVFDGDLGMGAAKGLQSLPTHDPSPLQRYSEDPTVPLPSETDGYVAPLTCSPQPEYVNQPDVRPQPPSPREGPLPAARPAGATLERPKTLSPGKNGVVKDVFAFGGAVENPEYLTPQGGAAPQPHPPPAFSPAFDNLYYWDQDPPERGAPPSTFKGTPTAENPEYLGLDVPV
T3 sequence (Q14680 whole entry): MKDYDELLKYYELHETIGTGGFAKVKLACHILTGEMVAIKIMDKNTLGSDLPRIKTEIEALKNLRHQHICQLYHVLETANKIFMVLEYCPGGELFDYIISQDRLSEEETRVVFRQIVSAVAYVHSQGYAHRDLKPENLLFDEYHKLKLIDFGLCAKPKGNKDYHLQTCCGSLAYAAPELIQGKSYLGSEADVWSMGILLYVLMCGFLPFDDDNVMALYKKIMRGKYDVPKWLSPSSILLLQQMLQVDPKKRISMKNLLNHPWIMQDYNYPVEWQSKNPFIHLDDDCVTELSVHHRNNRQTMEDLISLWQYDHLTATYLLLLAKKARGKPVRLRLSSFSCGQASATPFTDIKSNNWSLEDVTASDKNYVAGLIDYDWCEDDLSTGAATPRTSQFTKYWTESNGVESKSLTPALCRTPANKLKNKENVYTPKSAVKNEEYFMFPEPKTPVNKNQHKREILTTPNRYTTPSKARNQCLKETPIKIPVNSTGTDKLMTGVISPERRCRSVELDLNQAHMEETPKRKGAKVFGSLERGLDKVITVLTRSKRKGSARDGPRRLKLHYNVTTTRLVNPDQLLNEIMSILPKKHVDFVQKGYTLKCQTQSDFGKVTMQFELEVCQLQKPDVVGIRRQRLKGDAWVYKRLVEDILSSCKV
T2 sequence (Q04759 whole entry): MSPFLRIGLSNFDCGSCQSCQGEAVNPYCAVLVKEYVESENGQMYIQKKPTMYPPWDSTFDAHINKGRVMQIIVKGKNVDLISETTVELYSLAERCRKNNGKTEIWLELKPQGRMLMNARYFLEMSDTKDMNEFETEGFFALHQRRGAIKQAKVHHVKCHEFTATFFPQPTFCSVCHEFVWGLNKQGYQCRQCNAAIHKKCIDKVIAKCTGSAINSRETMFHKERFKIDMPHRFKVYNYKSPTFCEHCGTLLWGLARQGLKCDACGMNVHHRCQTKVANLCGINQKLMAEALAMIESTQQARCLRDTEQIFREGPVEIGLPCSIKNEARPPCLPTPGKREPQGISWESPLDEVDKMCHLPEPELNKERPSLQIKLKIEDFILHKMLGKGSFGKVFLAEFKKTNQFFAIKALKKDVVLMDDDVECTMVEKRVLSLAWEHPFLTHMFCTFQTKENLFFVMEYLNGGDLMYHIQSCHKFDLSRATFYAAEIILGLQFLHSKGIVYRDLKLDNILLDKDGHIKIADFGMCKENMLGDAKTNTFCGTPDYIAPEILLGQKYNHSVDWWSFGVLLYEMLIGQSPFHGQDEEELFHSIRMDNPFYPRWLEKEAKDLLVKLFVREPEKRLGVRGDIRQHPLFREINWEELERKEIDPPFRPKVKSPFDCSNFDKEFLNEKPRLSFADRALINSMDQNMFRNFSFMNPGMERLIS
T8 sequence (Q16659 whole entry): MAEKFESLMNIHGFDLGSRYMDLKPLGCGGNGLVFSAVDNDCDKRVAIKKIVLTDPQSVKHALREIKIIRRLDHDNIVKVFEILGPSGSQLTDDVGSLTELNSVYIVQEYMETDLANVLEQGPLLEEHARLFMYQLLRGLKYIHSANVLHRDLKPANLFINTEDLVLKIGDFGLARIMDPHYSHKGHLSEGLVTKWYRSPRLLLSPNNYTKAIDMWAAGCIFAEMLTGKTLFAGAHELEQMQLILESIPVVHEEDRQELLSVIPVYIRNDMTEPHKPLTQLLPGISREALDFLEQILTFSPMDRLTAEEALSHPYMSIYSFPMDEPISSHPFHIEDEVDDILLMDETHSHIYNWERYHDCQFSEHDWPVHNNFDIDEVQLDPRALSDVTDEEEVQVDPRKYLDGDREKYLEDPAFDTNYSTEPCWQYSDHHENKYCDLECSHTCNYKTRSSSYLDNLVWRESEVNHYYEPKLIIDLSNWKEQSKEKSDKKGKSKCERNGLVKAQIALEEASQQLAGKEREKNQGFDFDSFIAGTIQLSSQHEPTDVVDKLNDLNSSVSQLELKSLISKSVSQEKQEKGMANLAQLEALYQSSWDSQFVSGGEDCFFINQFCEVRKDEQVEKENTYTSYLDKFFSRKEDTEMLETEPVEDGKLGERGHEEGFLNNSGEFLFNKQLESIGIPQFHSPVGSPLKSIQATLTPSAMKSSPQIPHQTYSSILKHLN
T4 sequence (P31751 whole entry): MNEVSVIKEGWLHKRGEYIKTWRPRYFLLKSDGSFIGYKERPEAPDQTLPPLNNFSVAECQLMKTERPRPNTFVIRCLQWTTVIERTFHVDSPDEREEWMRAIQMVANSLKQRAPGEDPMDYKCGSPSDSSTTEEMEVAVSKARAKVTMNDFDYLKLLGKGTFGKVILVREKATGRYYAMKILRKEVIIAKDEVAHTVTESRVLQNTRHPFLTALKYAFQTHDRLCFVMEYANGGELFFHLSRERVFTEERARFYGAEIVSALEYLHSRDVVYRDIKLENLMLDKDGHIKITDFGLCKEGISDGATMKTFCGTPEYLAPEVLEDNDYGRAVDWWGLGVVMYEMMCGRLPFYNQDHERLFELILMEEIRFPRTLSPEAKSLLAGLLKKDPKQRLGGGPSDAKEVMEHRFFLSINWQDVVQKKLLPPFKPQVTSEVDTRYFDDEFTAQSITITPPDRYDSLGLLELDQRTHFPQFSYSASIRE

| SMILES | remaining binding at 1 µM [1] [%] | remaining binding at 1 µM [2] [%] | remaining binding at 1 µM [3] [%] | remaining binding at 1 µM [4] [%] | remaining binding at 1 µM [5] [%] | remaining binding at 1 µM ([6]; FLT3-autoinhibited) [%] | remaining binding at 1 µM ([6]; FLT3) [%] | remaining binding at 1 µM [7] [%] | remaining binding at 1 µM [8] [%] |
| --- | --- | --- | --- | --- | --- | --- | --- | --- | --- |
| CNc1nc(Nc2ccc(C(=O)N3CCOCC3)cc2OC)nc2[nH]cc(C#N)c12 [Example 1, 2-((2-methoxy-4-(morpholine-4-carbonyl)phenyl)amino)-4-(methylamino)-7H-pyrrolo[2,3-d]pyrimidine-5-carbonitrile] | 95 | 95 | 78 | 86 | 98 | 45 | 86 | 79 | 89 |
| CC1(Nc2nc(Nc3cnn([C@H]4CCN(C5COC5)C[C@@H]4F)c3Cl)nc3[nH]cc(C#N)c23)CC1 [Example 52, 2-((5-chloro-1-((3S,4S)-3-fluoro-1-(oxetane-3-yl)piperidine-4-yl)-1H-pyrazole-4-yl)amino)((1-methylcyclopropyl)amino)-7H-pyrrolo[2,3-d]pyrimidine-5-carbonitrile] | 39 | 47 | 6.3 | 100 | 75 | 0.3 | 0.05 | 100 | 54 |
| CCNc1nc(Nc2ccc(C(=O)N3CCC(N4CCOCC4)CC3)cc2OC)nc2[nH]cc(C(F)(F)F)c12 [Example 104, (4-((4-(ethylamino)-5-(trifluoromethyl)-7H-pyrrolo[2,3-d]pyrimidine-2-yl)amino)-3-methoxyphenyl)(4-morpholinopiperidine-1-yl)methanone] | 45 | 100 | 79 | 94 | 69 | 76 | 65 | 100 | 95 |
